# In PubChem BioAssay (NCI):
#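 48-hour exposure; five concentrations; linearly interpolated endpoints. At the GI50, growth is halved. At the TGI there is no net growth.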
# Experiments:
# Test in all cases: DTP human tumour cell line panel, 48 h
# 786-0 renal = test system: 786-0 renal
# A498 renal = test system: A498 renal
# A549 NSCLC = test system: A549 NSCLC
# ACHN renal = test system: ACHN renal
# BT-549 breast = test system: BT-549 breast
# CAKI-1 renal = test system: CAKI-1 renal
# CCRF-CEM leukemia = test system: CCRF-CEM leukemia
# COLO 205 colon = test system: COLO 205 colon
# DU-145 prostate = test system: DU-145 prostate
# EKVX NSCLC = test system: EKVX NSCLC
# HCC-2998 colon = test system: HCC-2998 colon
# HCT-116 colon = test system: HCT-116 colon
# HCT-15 colon = test system: HCT-15 colon
# HL-60(TB) leukemia = test system: HL-60(TB) leukemia
# HOP-62 NSCLC = test system: HOP-62 NSCLC
# HOP-92 NSCLC = test system: HOP-92 NSCLC
# HS 578T breast = test system: HS 578T breast
# HT29 colon = test system: HT29 colon
# IGROV1 ovarian = test system: IGROV1 ovarian
# K-562 leukemia = test system: K-562 leukemia
# KM12 colon = test system: KM12 colon
# LOX IMVI melanoma = test system: LOX IMVI melanoma
# M14 melanoma = test system: M14 melanoma
# MALME-3M melanoma = test system: MALME-3M melanoma
# MCF7 breast = test system: MCF7 breast
# MDA-MB-231 breast = test system: MDA-MB-231 breast
# MDA-MB-435 = test system: MDA-MB-435
# MOLT-4 leukemia = test system: MOLT-4 leukemia
# NCI-H226 lung = test system: NCI-H226 lung
# NCI-H23 lung = test system: NCI-H23 lung
# NCI-H460 lung = test system: NCI-H460 lung
# NCI-H522 lung = test system: NCI-H522 lung
# NCI/ADR-RES ovarian = test system: NCI/ADR-RES ovarian
# OVCAR-3 ovarian = test system: OVCAR-3 ovarian
# OVCAR-4 ovarian = test system: OVCAR-4 ovarian
# OVCAR-5 ovarian = test system: OVCAR-5 ovarian
# OVCAR-8 ovarian = test system: OVCAR-8 ovarian
# PC-3 prostate = test system: PC-3 prostate
# RPMI-8226 leukemia = test system: RPMI-8226 leukemia
# RXF 393 renal = test system: RXF 393 renal
# SF-268 CNS = test system: SF-268 CNS
# SF-295 CNS = test system: SF-295 CNS
# SF-539 CNS = test system: SF-539 CNS
# SK-MEL-2 melanoma = test system: SK-MEL-2 melanoma
# SK-MEL-28 melanoma = test system: SK-MEL-28 melanoma
# SK-MEL-5 melanoma = test system: SK-MEL-5 melanoma
# SK-OV-3 ovarian = test system: SK-OV-3 ovarian
# SN12C renal = test system: SN12C renal
# SNB-19 CNS = test system: SNB-19 CNS
# SNB-75 CNS = test system: SNB-75 CNS
# SR leukemia = test system: SR leukemia
# SW-620 colon = test system: SW-620 colon
# T-47D breast = test system: T-47D breast
# TK-10 renal = test system: TK-10 renal
# U251 CNS = test system: U251 CNS
# UACC-257 melanoma = test system: UACC-257 melanoma
# UACC-62 melanoma = test system: UACC-62 melanoma
# UO-31 renal = test system: UO-31 renal
smiles,measurement,setting,value
C=C(C)[C@@H]1CC[C@]2(C(=O)NCCCN)CC[C@]3(C)[C@H](CC[C@@H]4[C@@]5(C)CC[C@H](O)C(C)(C)[C@@H]5CC[C@]43C)[C@@H]12,GI50,786-0 renal,23.2 µM
same,TGI,786-0 renal,63.4 µM
same,GI50,A498 renal,22.9 µM
same,TGI,A498 renal,49.2 µM
same,GI50,A549 NSCLC,19.6 µM
same,TGI,A549 NSCLC,66.5 µM
same,GI50,ACHN renal,21.7 µM
same,TGI,ACHN renal,59.9 µM
same,GI50,BT-549 breast,23.8 µM
same,TGI,BT-549 breast,75.9 µM
same,GI50,CAKI-1 renal,21.9 µM
same,TGI,CAKI-1 renal,> 100 µM
same,GI50,CCRF-CEM leukemia,22.1 µM
same,TGI,CCRF-CEM leukemia,> 100 µM
same,GI50,COLO 205 colon,21 µM
same,TGI,COLO 205 colon,> 100 µM
same,GI50,DU-145 prostate,17.5 µM
same,TGI,DU-145 prostate,37.1 µM
same,GI50,EKVX NSCLC,23.3 µM
same,TGI,EKVX NSCLC,76.1 µM
same,GI50,HCC-2998 colon,21.4 µM
same,TGI,HCC-2998 colon,77.1 µM
same,GI50,HCT-116 colon,13.9 µM
same,TGI,HCT-116 colon,62.4 µM
same,GI50,HCT-15 colon,21.7 µM
same,TGI,HCT-15 colon,> 100 µM
same,GI50,HL-60(TB) leukemia,16.5 µM
same,TGI,HL-60(TB) leukemia,50.7 µM
same,GI50,HOP-62 NSCLC,18.3 µM
same,TGI,HOP-62 NSCLC,88.4 µM
same,GI50,HOP-92 NSCLC,10.8 µM
same,TGI,HOP-92 NSCLC,35.4 µM
same,GI50,HS 578T breast,40.5 µM
same,TGI,HS 578T breast,> 100 µM
same,GI50,HT29 colon,6.95 µM
same,TGI,HT29 colon,38.4 µM
same,GI50,IGROV1 ovarian,21.5 µM
same,TGI,IGROV1 ovarian,> 100 µM
same,GI50,K-562 leukemia,9.84 µM
same,TGI,K-562 leukemia,31.3 µM
same,GI50,KM12 colon,17.3 µM
same,TGI,KM12 colon,52.9 µM
same,GI50,LOX IMVI melanoma,25.5 µM
same,TGI,LOX IMVI melanoma,> 100 µM
same,GI50,M14 melanoma,24.7 µM
same,TGI,M14 melanoma,> 100 µM
same,GI50,MALME-3M melanoma,23.3 µM
same,TGI,MALME-3M melanoma,94.1 µM
same,GI50,MCF7 breast,10.7 µM
same,TGI,MCF7 breast,95.8 µM
same,GI50,MDA-MB-231 breast,21.1 µM
same,TGI,MDA-MB-231 breast,76.2 µM
same,GI50,MDA-MB-435,28.7 µM
same,TGI,MDA-MB-435,> 100 µM
same,GI50,MOLT-4 leukemia,12.9 µM
same,TGI,MOLT-4 leukemia,52.8 µM
same,GI50,NCI-H226 lung,21.2 µM
same,TGI,NCI-H226 lung,> 100 µM
same,GI50,NCI-H23 lung,22.6 µM
same,TGI,NCI-H23 lung,87.1 µM
same,GI50,NCI-H460 lung,14 µM
same,TGI,NCI-H460 lung,> 100 µM
same,GI50,NCI-H522 lung,21 µM
same,TGI,NCI-H522 lung,68.9 µM
same,GI50,NCI/ADR-RES ovarian,24.8 µM
same,TGI,NCI/ADR-RES ovarian,81.2 µM
same,GI50,OVCAR-3 ovarian,15.7 µM
same,TGI,OVCAR-3 ovarian,39.5 µM
same,GI50,OVCAR-4 ovarian,25.6 µM
same,TGI,OVCAR-4 ovarian,> 100 µM
same,GI50,OVCAR-5 ovarian,14.8 µM
same,TGI,OVCAR-5 ovarian,31.3 µM
same,GI50,OVCAR-8 ovarian,27.7 µM
same,TGI,OVCAR-8 ovarian,87.7 µM
same,GI50,PC-3 prostate,12.6 µM
same,TGI,PC-3 prostate,37.8 µM
same,GI50,RPMI-8226 leukemia,17.2 µM
same,TGI,RPMI-8226 leukemia,92.6 µM
same,GI50,RXF 393 renal,17 µM
same,TGI,RXF 393 renal,44.1 µM
same,GI50,SF-268 CNS,23 µM
same,TGI,SF-268 CNS,63.8 µM
same,GI50,SF-295 CNS,22.6 µM
same,TGI,SF-295 CNS,67.3 µM
same,GI50,SF-539 CNS,17.9 µM
same,TGI,SF-539 CNS,52 µM
same,GI50,SK-MEL-2 melanoma,27.3 µM
same,TGI,SK-MEL-2 melanoma,85.8 µM
same,GI50,SK-MEL-28 melanoma,22.1 µM
same,TGI,SK-MEL-28 melanoma,57.8 µM
same,GI50,SK-MEL-5 melanoma,19.4 µM
same,TGI,SK-MEL-5 melanoma,48.6 µM
same,GI50,SK-OV-3 ovarian,17.7 µM
same,TGI,SK-OV-3 ovarian,49.4 µM
same,GI50,SN12C renal,20.8 µM
same,TGI,SN12C renal,82.6 µM
same,GI50,SNB-19 CNS,24.7 µM
same,TGI,SNB-19 CNS,84.5 µM
same,GI50,SNB-75 CNS,32.1 µM
same,TGI,SNB-75 CNS,> 100 µM
same,GI50,SR leukemia,9.05 µM
same,TGI,SR leukemia,> 100 µM
same,GI50,SW-620 colon,22.5 µM
same,TGI,SW-620 colon,> 100 µM
same,GI50,T-47D breast,13.1 µM
same,TGI,T-47D breast,53.2 µM
same,GI50,TK-10 renal,23.9 µM
same,TGI,TK-10 renal,60.4 µM
same,GI50,U251 CNS,17.7 µM
same,TGI,U251 CNS,49.4 µM
same,GI50,UACC-257 melanoma,20.6 µM
same,TGI,UACC-257 melanoma,55.3 µM
same,GI50,UACC-62 melanoma,27.4 µM
same,TGI,UACC-62 melanoma,93.2 µM
same,GI50,UO-31 renal,38.9 µM
same,TGI,UO-31 renal,> 100 µM
